Test results: PubChem BioAssay AID328 (DTP/NCI, 2004)
“And” between values parts separate entries of the source, which are not always exact repeats. Equal values may be shown once. Inconclusive results and toxic doses are left out.

Test system: BDF1 mice, P388 leukemia ip, median survival T/C
Assay: NCI In Vivo Anticancer Drug Screen. Data for tumor model P388 Leukemia (intraperitoneal) in B6D2F1 (BDF1) mice
Conditions: endpoint: median survival time, higher = longer survival
Summary of the method: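 Survival ratio, drug arm over vehicle arm, in mice with a transplanted tumour.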

[1] = dose: 25.0 mg/kg/injection, schedule: Q01DX009 (ip), vehicle: saline with Tween-80
[2] = dose: 50.0 mg/kg/injection, schedule: Q01DX009 (ip), vehicle: saline with Tween-80
[3] = dose: 100.0 mg/kg/injection, schedule: Q01DX009 (ip), vehicle: saline with Tween-80
[4] = dose: 100.0 mg/kg/injection, schedule: Q01DX009 (ip), vehicle: saline
[5] = dose: 100.0 mg/kg/injection, schedule: Q04DX003 (ip), vehicle: saline with Tween-80
[6] = dose: 100.0 mg/kg/injection, schedule: Q04DX003 (ip), vehicle: saline
[7] = dose: 200.0 mg/kg/injection, schedule: Q01DX009 (ip), vehicle: saline
[8] = dose: 200.0 mg/kg/injection, schedule: Q04DX003 (ip), vehicle: saline with Tween-80
[9] = dose: 200.0 mg/kg/injection, schedule: Q04DX003 (ip), vehicle: saline
[10] = dose: 400.0 mg/kg/injection, schedule: Q01DX009 (ip), vehicle: saline
[11] = dose: 400.0 mg/kg/injection, schedule: Q04DX003 (ip), vehicle: saline with Tween-80
[12] = dose: 400.0 mg/kg/injection, schedule: Q04DX003 (ip), vehicle: saline
[13] = dose: 12.5 mg/kg/injection, schedule: Q04DX003 (ip), vehicle: saline with Tween-80
[14] = dose: 25.0 mg/kg/injection, schedule: Q04DX003 (ip), vehicle: saline with Tween-80
[15] = dose: 50.0 mg/kg/injection, schedule: Q04DX003 (ip), vehicle: saline with Tween-80
[16] = dose: 50.0 mg/kg/injection, schedule: Q01DX009 (ip), vehicle: Klucel (hydroxypropylcellulose) (HPC)

Clc1ccc2c(c1)-c1ccccc1C1=NCCN12
T/C (dose: 2.5 mg/kg/injection, schedule: Q04DX003 (ip), vehicle: Klucel (hydroxypropylcellulose) (HPC)): 110 % of control
T/C (dose: 4.4 mg/kg/injection, schedule: Q04DX003 (ip), vehicle: Klucel (hydroxypropylcellulose) (HPC)): 100 % of control
T/C (dose: 5.0 mg/kg/injection, schedule: Q01DX009 (ip), vehicle: Klucel (hydroxypropylcellulose) (HPC)): 95 % of control
T/C (dose: 5.0 mg/kg/injection, schedule: Q04DX003 (ip), vehicle: Klucel (hydroxypropylcellulose) (HPC)): 100 % of control
T/C (dose: 6.6 mg/kg/injection, schedule: Q04DX003 (ip), vehicle: Klucel (hydroxypropylcellulose) (HPC)): 91 % of control
T/C (dose: 10.0 mg/kg/injection, schedule: Q01DX009 (ip), vehicle: Klucel (hydroxypropylcellulose) (HPC)): 113 % of control
T/C (dose: 10.0 mg/kg/injection, schedule: Q04DX003 (ip), vehicle: Klucel (hydroxypropylcellulose) (HPC)): 95 % of control
T/C (dose: 15.0 mg/kg/injection, schedule: Q04DX003 (ip), vehicle: Klucel (hydroxypropylcellulose) (HPC)): 91 % of control
T/C (dose: 20.0 mg/kg/injection, schedule: Q01DX009 (ip), vehicle: Klucel (hydroxypropylcellulose) (HPC)): 113 % of control

CC(=O)O[C@@]1(C)C(=O)OCC2=CCN3CC[C@@H](OC(=O)[C@H](C)[C@]1(C)OC(C)=O)[C@@H]23
T/C (dose: 25.0 mg/kg/injection, schedule: Q01DX010 (ip), vehicle: carboxymethylcellulose (CMC)): 105 % of control
T/C (dose: 50.0 mg/kg/injection, schedule: Q01DX010 (ip), vehicle: carboxymethylcellulose (CMC)): 90 % of control

OCCOCC(F)(F)F
T/C [1]: 98 % of control
T/C [2]: 105 % of control
T/C [3]: 88 % of control and 108 % of control
T/C [4]: 122 % of control
T/C [5]: 100 % of control
T/C [6]: 100 % of control
T/C [7]: 122 % of control
T/C [8]: 123 % of control
T/C [9]: 100 % of control
T/C [10]: 111 % of control
T/C [11]: 88 % of control
T/C [12]: 90 % of control

CN(C)S(=O)(=O)c1ccccc1C(O)(c1ccccc1)c1ccccc1
T/C [5]: 99 % of control
T/C [8]: 116 % of control
T/C [11]: 91 % of control

Cc1cccc(C(=O)C=C(C(F)(F)F)C(F)(F)F)c1
T/C (dose: 6.25 mg/kg/injection, schedule: Q01DX009 (ip), vehicle: saline with Tween-80): 110 % of control
T/C (dose: 12.5 mg/kg/injection, schedule: Q01DX009 (ip), vehicle: saline with Tween-80): 155 % of control
T/C [13]: 119 % of control
T/C (dose: 12.5 mg/kg/injection, schedule: Q04DX003 (sc), vehicle: saline with Tween-80): 105 % of control
T/C [1]: 150 % of control
T/C [14]: 104 % of control
T/C (dose: 25.0 mg/kg/injection, schedule: Q04DX003 (sc), vehicle: saline with Tween-80): 115 % of control
T/C [15]: 119 % of control
T/C (dose: 50.0 mg/kg/injection, schedule: Q04DX003 (sc), vehicle: saline with Tween-80): 120 % of control

c1cnc2c3c(ccc2c1)CN(C12CC4CC(CC(C4)C1)C2)CO3
T/C [14]: 108 % of control
T/C [15]: 109 % of control and 113 % of control
T/C [5]: 108 % of control

COC1=CCC23C(=O)C=CC(=O)C2(C1)C(=O)c1ccccc1C3=O (configuration not stated)
T/C (dose: 3.12 mg/kg/injection, schedule: Q04DX003 (ip), vehicle: saline with Tween-80): 105 % of control
T/C (dose: 6.25 mg/kg/injection, schedule: Q04DX003 (ip), vehicle: saline with Tween-80): 113 % of control
T/C [13]: 113 % of control

Cc1cc(NC(=O)NCc2ccc(N)cc2)ccc1S(=O)(=O)F
T/C (dose: 25.0 mg/kg/injection, schedule: Q01DX009 (ip), vehicle: saline): 97 % of control
T/C (dose: 50.0 mg/kg/injection, schedule: Q01DX009 (ip), vehicle: saline): 109 % of control
T/C (dose: 50.0 mg/kg/injection, schedule: Q04DX003 (ip), vehicle: saline): 102 % of control
T/C (dose: 75.0 mg/kg/injection, schedule: Q01DX009 (ip), vehicle: saline): 115 % of control
T/C [4]: 90 % of control and 124 % of control
T/C [6]: 102 % of control
T/C (dose: 150.0 mg/kg/injection, schedule: Q01DX009 (ip), vehicle: saline): 92 % of control
T/C [7]: 106 % of control
T/C [9]: 100 % of control
T/C [10]: 99 % of control
T/C [12]: 97 % of control

[Cl][Pt+2]([Cl])([Cl])[Cl].c1ccc(C2CC[N-]CC2)cc1.c1ccc(C2CC[N-]CC2)cc1
T/C (dose: 25.0 mg/kg/injection, schedule: Q01DX009 (ip), vehicle: Klucel (hydroxypropylcellulose) (HPC)): 121 % of control
T/C (dose: 25.0 mg/kg/injection, schedule: Q01DX009 (ip), vehicle: water): 103 % of control and 122 % of control
T/C [16]: 112 % of control
T/C (dose: 50.0 mg/kg/injection, schedule: Q01DX009 (ip), vehicle: water): 112 % of control
T/C (dose: 50.0 mg/kg/injection, schedule: Q04DX003 (ip), vehicle: water): 109 % of control
T/C (dose: 100.0 mg/kg/injection, schedule: Q01DX009 (ip), vehicle: Klucel (hydroxypropylcellulose) (HPC)): 121 % of control
T/C (dose: 100.0 mg/kg/injection, schedule: Q01DX009 (ip), vehicle: water): 90 % of control
T/C (dose: 100.0 mg/kg/injection, schedule: Q04DX003 (ip), vehicle: water): 105 % of control
T/C (dose: 200.0 mg/kg/injection, schedule: Q04DX003 (ip), vehicle: water): 98 % of control
T/C (dose: 400.0 mg/kg/injection, schedule: Q04DX003 (ip), vehicle: water): 89 % of control

O=C1OC(C(O)CO)C(O)=C1O (configuration not stated)
T/C (dose: 0.01 mg/kg/injection, schedule: Q01DX009 (ip), vehicle: saline): 105 % of control and 109 % of control
T/C (dose: 0.03 mg/kg/injection, schedule: Q01DX009 (ip), vehicle: saline): 91 % of control and 100 % of control and 118 % of control
T/C (dose: 0.06 mg/kg/injection, schedule: Q01DX009 (ip), vehicle: saline): 97 % of control and 100 % of control and 113 % of control
T/C (dose: 0.24 mg/kg/injection, schedule: Q01DX009 (ip), vehicle: saline): 102 % of control
T/C (dose: 0.25 mg/kg/injection, schedule: Q01DX009 (ip), vehicle: saline): 90 % of control and 110 % of control
T/C (dose: 0.5 mg/kg/injection, schedule: Q01DX009 (ip), vehicle: saline): 95 % of control and 105 % of control
T/C (dose: 1.0 mg/kg/injection, schedule: Q01DX001 (ip), vehicle: saline): 100 % of control
T/C (dose: 1.0 mg/kg/injection, schedule: Q01DX009 (ip), vehicle: saline): 90 % of control and 95 % of control
T/C (dose: 2.0 mg/kg/injection, schedule: Q01DX001 (ip), vehicle: saline): 100 % of control
T/C (dose: 2.0 mg/kg/injection, schedule: Q01DX009 (ip), vehicle: saline): 95 % of control
T/C (dose: 4.0 mg/kg/injection, schedule: Q01DX001 (ip), vehicle: saline): 105 % of control
T/C (dose: 4.0 mg/kg/injection, schedule: Q01DX009 (ip), vehicle: saline): 90 % of control
T/C (dose: 8.0 mg/kg/injection, schedule: Q01DX009 (ip), vehicle: saline): 100 % of control
T/C (dose: 16.0 mg/kg/injection, schedule: Q01DX001 (ip), vehicle: saline): 105 % of control
T/C (dose: 16.0 mg/kg/injection, schedule: Q01DX009 (ip), vehicle: saline): 100 % of control
T/C (dose: 32.0 mg/kg/injection, schedule: Q01DX001 (ip), vehicle: saline): 100 % of control
T/C (dose: 32.0 mg/kg/injection, schedule: Q01DX009 (ip), vehicle: saline): 90 % of control
T/C (dose: 64.0 mg/kg/injection, schedule: Q01DX001 (ip), vehicle: saline): 95 % of control
T/C [4]: 100 % of control
T/C [6]: 95 % of control
T/C [7]: 105 % of control
T/C [9]: 95 % of control
T/C [12]: 95 % of control

O=NN(CCCl)C(=O)Nc1cc2c3ccccc3ccc2c2ccccc12
T/C [16]: 121 % of control

COc1cc2c(cc1I)-c1c(cc(OC)c(OC)c1OC)CC[C@@H]2NC(C)=O
T/C (dose: 100.0 mg/kg/injection, schedule: Q04DX003 (ip), vehicle: saline sonified): 100 % of control
T/C (dose: 200.0 mg/kg/injection, schedule: Q04DX003 (ip), vehicle: saline sonified): 108 % of control
T/C (dose: 400.0 mg/kg/injection, schedule: Q04DX003 (ip), vehicle: saline sonified): 100 % of control

O=[N+]([O-])c1cc([N+](=O)[O-])c2ccccc2c1NS(=O)(=O)c1ccc(Cl)c(Cl)c1
T/C [2]: 92 % of control
T/C [3]: 111 % of control

N#CCC(=O)Cc1ccccc1[N+](=O)[O-]
T/C (dose: 400.0 mg/kg/injection, schedule: Q01DX001 (ip), vehicle: saline sonified): 100 % of control
